Entries after “also recorded” stand apart in the source; their conditions may differ.
Key:
rat small intestine [1] = experiment: Sustained Spike Potential (SSP) myoelectric bioassay, infusion into the duodenum via cannula in instrumented uninfected rats; type: in vivo; settings: for SSP frequency compared with saline controls / background (in words): 0.2 ml infused into intestinal lumen, FIG. 3; for stimulation / induction of SSP above background levels (in words): infused into intestinal lumen, concentration not stated at the place
Description: Outbred male rats (Sprague Dawley, Harlan Sprague Dawley, Inc., Indianapolis, Ind.) were housed singly and maintained on a 12-hour light/12-hour dark cycle. All rats used in the bioassay procedure were uninfected with tapeworms. The design and surgical implantation procedure of the intestinal extracellular bipolar electrodes have been described previously (Dwinell et al., 1994, 1997). Briefly, four bipolar electrodes were surgically sutured to the intestinal serosa of each rat according to the methods of Dwinell et at. (1994), which is incorporated herein by reference. Three electrodes (J1-J3) were implanted on the jejunum at 10 cm intervals, with the first electrode (J1) placed 10 cm caudal from the ligament of Treitz and proceeding caudally with J2 and J3. A fourth electrode (designated “I” because it was placed within the ileum) was placed 20 cm orad from the ileo-caecal junction. In addition, a cannula was implanted with one end residing in the lumen of the mid-duodenum, whereas the other end was exteriorized to allow infusion of test fractions.
All compounds tested were infused into the duodenum via the cannula. Compounds were delivered in 0.2 ml aliquots followed immediately by a 0.2 ml saline cannula rinse. These volumes were used in order to prevent muscle contraction due to stretch from larger bolus volumes. To observe the induction of SSP, intestinal myoelectric activity was recorded for 90 minutes following infusion.
Consistent with the protocol of Dwinell et al. (1994), intestinal myoelectric activity was not recorded for the first five days after implantation surgery. Control recordings were taken after this period to assure the return of normal myoelectric patterns of the MMC following the cessation of post-surgical ileus. Periodic “control” recordings were made with saline on the intervening days between the tests with tapeworm-conditioned medium (TCM) or its fractions.
In vivo intestinal myoelectric activity was recorded with a polygraph chart recorder (Grass Instruments, Quincy, Mass.). The myoelectric signal from each electrode was simultaneously recorded on paper and by a personal computer with an I/O board and WINDAQ software (Dataq Instruments, Akron, Ohio) connected to the polygraph recorder by an analog-to-digital converter (Dataq Instruments).
Food was removed on each recording day at 0800 hour to prevent animal feeding and the subsequent disruption of the interdigestive myoelectric pattern. Recording occurred between 1300 and 1900 hours. All recording sessions for each animal were at least 1.5 hour in duration, and all animals were recorded while awake and unrestrained. Vehicle (0.9% saline or in some cases RPMI 1640) was used as control for test substances.
Five days after electrode and cannula implantation surgery, three consecutive baseline 90-minute recordings were made on separate days in each rat to confirm the presence of normal intestinal myoelectric activity at the end of the immediate post surgical period.
Secreted compounds were infused via the duodenal cannula and the frequency of the sustained spike potential (SSP) electrical patterns was determined from recordings of myoelectric activity. […] The third and final phase of the MMC (marked by arrowheads) is a period of >90% spiking and represents a series of contractions migrating orad to caudad along the small intestine. The caudad migration of phase III between electrode sites propels lumenal content toward the caecum.
Cyclic nucleotides were degraded to their 5′-monophosphate derivatives by incubation with bovine brain phosphodiesterase (PDE; cat. # P-0134, Sigma Co., St. Louis, Mo.).

[2] = tested on: Male Ross x Ross broiler chicks; experiment: Effect of cGMP on feed conversion ratio in broiler chicks; type: in vivo; settings: for Feed Conversion Ration FCR / Feed Intake / Gain: Experiment 1; for Feed Intake / Gain: per pen of 5 chicks, 10 mg cGMP/kg of feed and/or 100 mg succinate/kg of feed, terminated after week 2
Protocol: cGMP for use in this Example was manufactured by ICN Biomedicals (Irvine, Calif.), and purchased from Fisher Scientific (Hampton, N.H.). Male Ross x Ross broiler chicks were obtained from Sunnyside Hatchery (Beaver Dam, Wis.). Standard commercial chick mash was used as a base ration. cGMP with and without succinate was dissolved in water and sprayed as a mist onto the basal diet during continuous mixing. […] Diets were prepared 1 to 3 days prior to the start of the experiment and stored in individual plastic buckets (1 bucket/replicate). Chicks were randomly placed into treatment groups with 5 birds per replicate. Chicks were weighed as a group, so each pen of 5 animals represents n=1. Treatments and replicates were randomly assigned (via a random number generator) to pens. Chicks were fed ad libitum and checked daily. Feed intake and pen weight were recorded weekly. Feed conversion ratios were calculated as grams of feed consumed/grams of weight gain in the animals. […] The results are shown in Table 2 for two sets of experiments. Experiment 1 was to run for 3 weeks, but was accidentally disrupted during the third week.

rat small intestine [3] = experiment: SSP myoelectric recording after intragastric (per os) or intraperitoneal cGMP; type: in vivo; settings: data not shown
Protocol: For intragastric infusion, rats (n=4) were lightly sedated with Halothane in order to insert a gastric tube per os and infused with 0.3 ml of 10 mM cGMP in saline directly into the lumen of the stomach. Thirty minutes of control myoelectric recording were always performed before infusion of any substance. Five to seven minutes after infusion, the rats were reconnected to the recorder. […] This procedure was repeated with the same rats on a different day with 0.3 ml 100 mM cGMP (equal to 100× the minimal dose required to increase SSP frequency by infusion into the lumen of the small intestine) and on a separate day with 0.3 ml saline as a vehicle control. Post-oral dosing myoelectric recordings were 90 minutes in duration.
Neither cGMP (1.0 ml of 100 mM) injected intraperitoneally nor cGMP (0.3 ml of 10 mM and 100 mM) introduced into the stomach per os initiated the SSP pattern in the small intestine (data not shown).

[4] = Effect of cGMP on drug uptake: atenolol in blood after intraduodenal infusion; type: in vivo, rat; settings: atenolol 1 mg/kg intraduodenal; 0.2 ml of 10 mM cGMP 15 minutes prior to and 15 minutes after atenolol; same rats, FIG. 4
Protocol: Thus, a model drug, atenolol, was introduced directly into the lumen of the rat's small intestine, and the concentration of atenolol was measured in the blood over time. The blood values and concentration kinetics of the model drug were compared after infusion into the intestine alone or when infused with cGMP. Atenolol was quantified using conventional liquid chromatography/mass spectrometry methods.
Outbred male rats (Sprague Dawley, Harlan Sprague Dawley, Inc., Indianapolis, Ind.) were housed singly and maintained on a 12-hour light/12-hour dark cycle. All rats used in this bioassay procedure were uninfected with tapeworm. For intestinal infusion, rats (n=2) were lightly sedated, and an indwelling cannula was implanted into the duodenal lumen in each of two rats. […] In brief, the animal preparation involved the following: a cannula was surgically implanted into the duodenal region of each test rat. The cannula extended from the lumen of the duodenum, across the peritoneum, under the skin to the abdominal wall, and finally to an exit from the skin at the nape of the neck. […] During the surgery, both cannulas were filled with sterile saline and plugged with metal pins. Rats were allowed at least five days to recover from implantation surgery before any manipulation occurred. All rats were housed individually after surgery to prevent damage to the cannulas. […]

rat small intestine [5] = experiment: Effect of cGMP combined with succinate on SSP frequency (Example 3); type: in vivo; settings: for SSP stimulation (in words): FIG. 5
Protocol: In order to measure intestinal motility, rats were prepared as per […] et al. (1994) as described in the prior Examples. Briefly, electrodes were implanted along the length of the intestine to allow observation of intestinal muscle contraction, and a cannula was implanted in the duodenum to permit the infusion of test substances. After normal intestinal motility was established in each rat, test substances were infused through the duodenal cannula, and myoelectric recordings were used to observe the occurrence of SSP.

[6] = 10 mM, 0.2 ml infused into duodenum
[7] = 1 mM, 0.2 ml infused into duodenum
[8] = 100 mM, 0.2 ml infused into duodenum
[9] = grams of feed consumed/grams of weight gain
[10] = Experiment 2, grams of feed consumed/grams of weight gain

Nc1nc2c(nc(Br)n2[C@@H]2O[C@@H]3COP(=O)(O)O[C@H]3[C@H]2O)c(=O)[nH]1 [8-Br-cGMP, reference compound]
SSP/Hr (MEAN ± SE) (rat small intestine [1]; [6]): 0.50 ± 0.31 SSP/Hr | SSP frequency compared with saline controls / background (in words) (rat small intestine [1]; 10 mM): did not significantly increase

CC(=O)O [Acetate, reference compound]
SSP/Hr (MEAN ± SE) (rat small intestine [1]; 50 mM, 0.2 ml infused into duodenum): 0 SSP/Hr | stimulation / induction of SSP above background levels (in words) (rat small intestine [1]): lack of SSP induction

N[C@@H](C(=O)O)[C@@H](O)[C@H](O)[C@H](O)CO [D-Glucosaminic Acid, D-glucosaminic acid, reference compound]
SSP/Hr (MEAN ± SE) (rat small intestine [1]; 0.25 mM, 0.2 ml infused into duodenum): 0 SSP/Hr | stimulation / induction of SSP above background levels (in words) (rat small intestine [1]): lack of SSP induction

Nc1nc2nc[nH]c2c(=O)[nH]1 [Guanine suspension, guanine, reference compound]
SSP/Hr (MEAN ± SE) (rat small intestine [1]; [6]): 0 SSP/Hr

Nc1nc2nc[nH]c2c(=O)[nH]1 [Guanine, guanine, reference compound]
SSP/Hr (MEAN ± SE) (rat small intestine [1]; 0.1 mM, 0.2 ml infused into duodenum): 1.33 SSP/Hr | SSP/Hr (MEAN ± SE) (rat small intestine [1]; [7]): 1.33 ± 0.94 SSP/Hr | SSP/Hr (MEAN ± SE) (rat small intestine [1]; [6]): 0.33 ± 0.24 SSP/Hr | SSP frequency compared with saline controls / background (in words) (rat small intestine [1]; 10 mM): not significantly different from saline controls

Nc1nc2c(ncn2[C@@H]2O[C@H](COP(=O)(O)O)[C@@H](O)[C@H]2O)c(=O)[nH]1 [Guanosine Monophosphate, reference compound]
SSP/Hr (MEAN ± SE) (rat small intestine [1]; [6]): 0.5 ± 0.3 SSP/Hr

Nc1nc2c(ncn2[C@@H]2O[C@H](CO)[C@@H](O)[C@H]2O)c(=O)[nH]1 [Guanosine, guanosine, reference compound]
SSP/Hr (MEAN ± SE) (rat small intestine [1]; [6]): 0.50 ± 0.28 SSP/Hr | SSP frequency compared with saline controls / background (in words) (rat small intestine [1]; 10 mM): not significantly different from saline controls

CC(O)C(=O)O (stereo not drawn) [Lactic Acid, reference compound]
SSP/Hr (MEAN ± SE) (rat small intestine [1]; 20 mM, 0.2 ml infused into duodenum): 0 SSP/Hr | stimulation / induction of SSP above background levels (in words) (rat small intestine [1]): lack of SSP induction

O=C(O)CCC(=O)O [Succinate, succinic acid]
SSP frequency / SSP induction compared with saline controls (in words) (rat small intestine [1]; 100 mM infused into intestinal lumen): failure | SSP/Hr (MEAN ± SE) (rat small intestine [1]; [8]): 0.33 ± 0.27 SSP/Hr | stimulation / induction of SSP above background levels (in words) (rat small intestine [1]): does not alter motility | stimulation / induction of SSP above background levels (in words) (rat small intestine [1]; listed as succinate): lack of SSP induction | Feed Conversion Ration FCR [2, 9]: 1.561 ± 0.073 | Feed Intake [2]: 2127 ± 257 | Gain [2]: 1372 ± 194

Nc1nc2c(ncn2C2OC3COP(=O)(O)OC3C2O)c(=O)[nH]1 (stereo not drawn) [cGMP, guanosine cyclic 3′, 5′-hydrogen phosphate]
SSP/Hr (MEAN ± SE) (rat small intestine [1]; 100 nM, 0.2 ml infused into duodenum): 0 SSP/Hr | SSP/Hr (MEAN ± SE) (rat small intestine [1]; 1 μM, 0.2 ml infused into duodenum): 0 SSP/Hr | SSP/Hr (MEAN ± SE) (rat small intestine [1]; 10 μM, 0.2 ml infused into duodenum): 0.5 ± 0.25 SSP/Hr | SSP/Hr (MEAN ± SE) (rat small intestine [1]; 100 μM, 0.2 ml infused into duodenum): 0.66 ± 0.38 SSP/Hr | SSP/Hr (MEAN ± SE) (rat small intestine [1]; [7]): 0.80 ± 0.18 SSP/Hr | SSP/Hr (MEAN ± SE) (rat small intestine [1]; 5 mM, 0.2 ml infused into duodenum): 1.60 ± 0.38 SSP/Hr | SSP/Hr (MEAN ± SE) (rat small intestine [1]; 10 mM + 1 Unit PDE (incubated 30° C. 16 hours before infusion)): 0 SSP/Hr | ability to stimulate SSP after incubation with phosphodiesterase (PDE) before infusion (in words) (rat small intestine [1]; 10 mM cGMP solution or TCM incubated in PDE before bioassay): lose their ability to stimulate SSP; also recorded: control values | SSP/Hr (MEAN ± SE) (rat small intestine [1]; [6]): 2.0 ± 0.38 SSP/Hr | SSP frequency compared with saline controls / background (in words) (rat small intestine [1]; 10 mM): significantly increased | SSP/Hr (MEAN ± SE) (rat small intestine [1]; 10 mM, boiled before infusion): 1.0 ± 0.47 SSP/Hr | SSP/Hr (MEAN ± SE) (rat small intestine [1]; [8]): 1.50 ± 0.46 SSP/Hr | SSP/Hr (MEAN ± SE) (rat small intestine [1]; 0.5 M, 0.2 ml infused into duodenum): 1.25 ± 0.41 SSP/Hr | lumenal dose range with significant increase in SSP frequency (rat small intestine [1]; FIG. 2, versus saline, Student t-test): 1 to 100 mM | stimulation / induction of SSP above background levels (in words) (rat small intestine [1]): initiated SSP myoelectric patterns | initiation of SSP pattern in the small intestine (in words) (rat small intestine [3]; 0.3 ml of 10 mM into the stomach per os): lack of intestinal response | initiation of SSP pattern in the small intestine (in words) (rat small intestine [3]; 0.3 ml of 100 mM into the stomach per os): lack of intestinal response | initiation of SSP pattern in the small intestine (in words) (rat small intestine [3]; 1.0 ml of 100 mM injected intraperitoneally): lack of intestinal response | amount of atenolol in the blood over the 20-minute period, with cGMP versus atenolol alone [4]: almost doubles | SSP stimulation (in words) (rat small intestine [5]; 2.8 nM cGMP alone): did not stimulate SSP above the background; also recorded: generally does not produce | SSP stimulation (in words) (rat small intestine [5]; 10 mM cGMP alone): produces | concentrations of cGMP alone incapable of stimulating SSP (rat small intestine [5]; cGMP infused alone): below 1 mM | cGMP concentration required to activate SSP response (rat small intestine [5]; without succinate): about 10 mM | Feed Conversion Ration FCR [2, 9]: 1.535 ± 0.094 | Feed Intake [2]: 2334 ± 144 | Gain [2]: 1548 ± 65 | FCR Week 1 [2, 10]: 1.635 ± 0.093 | FCR Week 2 [2, 10]: 1.459 ± 0.058 | FCR Week 3 [2, 10]: 1.580 ± 0.059

O=c1[nH]cnc2c1ncn2[C@@H]1O[C@@H]2COP(=O)(O)O[C@H]2[C@H]1O [cIMP, reference compound]
stimulation / induction of SSP above background levels (in words) (rat small intestine [1]): no response

O=c1ccn([C@@H]2O[C@@H]3COP(=O)(O)O[C@H]3[C@H]2O)c(=O)[nH]1 [cUMP, reference compound]
stimulation / induction of SSP above background levels (in words) (rat small intestine [1]): no response

— patent US20040192638A1, “Method and composition for prolonging the residence time of drugs in the gut” (priority 2001, published 2004)
